The subject of test [1] is Aspergillus fumigatus 322-384. Briefly: Anti-fungal broth microdilution (MIC), fungus B. Format: cell-based. The note with it: filamentous protocol, more than 50% growth inhibition, 48 to 72 h. The essentials:
(§1)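 Broth microdilution followed NCCLS M27-A for the Candida yeasts and M38-A for the Aspergillus filamentous strains, testing 64 down to 0.125 μg/ml in twofold steps against a 10^6 CFU/ml inoculum. For Aspergillus, MIC was read after 48 to 72 h at 35 °C as the concentration giving >50% visible growth inhibition.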

Test [2] concerns Plasmodium faiciparum (strain 3D7). As to the kind of experiment: In vitro drug activity assay, protozoon D. The note with it: strain 3D7, 3[H]-hypoxanthine method. Format: cell-based, Plasmodium falciparum. The protocol: (§2) In vitro activity of selected compounds of the invention against different protozoa was assessed as follows.
(§3) Plasmodium falciparum strain K1 and strain 3D7 parasites were cultured according to Trager W and Jensen J B (Science 1976, 193: 673-675). In vitro drug susceptibility assays with the test compounds were carried out according to Korsinczky M et al. (Antimicrobial agents and chemotherapy 2000, 44(8): 2100-2108) and Fivelman Q L et al. (Antimicrobial agents and chemotherapy 2004, 48(11): 4097-4102) using a ^3[H]-hypoxanthine radioisotope method. ED50 values were calculated with Msxlfit (IDBS).
(§4) The following protozoa were assessed: • A) Trypanosoma cruzi (Tulahuan-LACZ amstigotes in PEM, Lorente S O et al., Antimicrobial agents and chemotherapy 2004, 48(8): 2937-2950; Buckner et al., Infection and Immunity 1999, 67(1): 403-409; Buckner et al., Antimicrobial Agents and Chemotherapy 1996, 40(11): 2592-2597) • B) Trypanosoma brucei rhodesiense (strain STIB900, Lorente S O et al., Antimicrobial agents and chemotherapy 2004, 48(8): 2937-2950; Habtemariam S, BMC Pharmacology 2003, 3:6) • C) Plasmodium falciparum (strain K1, Korsinczky M et al., Antimicrobial agents and chemotherapy 2000, 44(8): 2100-2108; Thaitong S and Beale G H, Trans. R. Soc. Trop. Med. Hyg. 1981, 75: 271-273; Trager W and Jensen J B, Science 1976, 193: 673-675) • D) Plasmodium faiciparum (strain 3D7, Mu et al., PLoS Biology 2005, 3(10): e335)

In test [3] the test system is Candida albicans ATCC 90028. As to the kind of experiment: Anti-fungal broth microdilution (MIC), fungus E. Format: cell-based. The note with it: yeast protocol, more than 80% inhibition, 48 h. The essentials: as §1
A general note: Dilution methods test growth across graded concentrations, often in twofold steps.

For test [4], the system named is Aspergillus fumigatus 040-200167. Briefly: Anti-fungal broth microdilution (MIC), fungus C. The test is classed as cell-based. The note with it: filamentous protocol, more than 50% growth inhibition, 48 to 72 h. The essentials: as §1
For test [5], the system named is Plasmodium falciparum (strain K1). Briefly: In vitro drug activity assay, protozoon C. The note with it: strain K1, 3[H]-hypoxanthine method. Format: cell-based. On the procedure:
as §2, §3, §4

Test [6] deals with Candida albicans ATCC 10231. As to the kind of experiment: Anti-fungal broth microdilution (MIC), fungus D. Format: cell-based. The note with it: yeast protocol, more than 80% inhibition, 48 h. Summed up: as §1
Test [7] relates to Candida parapsilosis ATCC 22019. Briefly: Anti-fungal broth microdilution (MIC), fungus G. Format: cell-based. The note with it: yeast protocol, more than 80% inhibition, 48 h. The essentials:
as §1

Test [8] relates to Aspergillus fumigatus ATCC 204305. As to the kind of experiment: Anti-fungal broth microdilution (MIC), fungus A. The test is classed as cell-based. The note with it: filamentous protocol, more than 50% growth inhibition, 48 to 72 h. Summed up:
as §1

Test [9] relates to Cryptococcus neoformans ATCC 90112. Briefly: Anti-fungal broth microdilution (MIC), fungus H. Format: cell-based. The note with it: yeast protocol, more than 80% inhibition, 48 h. The essentials: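 Broth microdilution per NCCLS M27-A (yeasts) and M38-A (filamentous fungi), compounds tested from 64 down to 0.125 μg/ml against 10^6 CFU/ml inocula. For filamentous fungi, MIC read after 48 to 72 h at 35° C as the concentration giving more than 50% visible growth inhibition.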

The subject of the next test is Candida albicans TS3. Briefly: Anti-fungal broth microdilution (MIC), fungus F. Format: cell-based. The note with it: yeast protocol, more than 80% inhibition, 48 h. Summed up:
as §1

In test [10] the test system is Bacteroides fragilis DSM 2151 (ATCC 25285). As to the kind of experiment: Anti-bacterial bouillon microdilution assay (MIC), bacterium E. Format: cell-based. The note with it: anaerob, 24 h. The essentials: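 Broth microdilution MIC per DIN 58940-5/-7. Twofold compound dilutions in water spanned 256 to 0.125 μg/ml in the test concentration series, with inocula of about 1×10^6 organisms/ml in strain-appropriate media. Growth was read as turbidity at 595 nm before and after incubation, against growth and sterile controls.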

For test [11], the system named is Enterococcus faecium DSM 20477 (ATCC 19434). As to the kind of experiment: Anti-bacterial bouillon microdilution assay (MIC), bacterium C. The test is classed as cell-based. The note with it: Enterococcus faecium DSM 20477, 24 h. On the procedure:
Selected compounds of the invention were tested in a bouillon microdilution assay method according to the DIN 58940 (www.din.de) guidelines for determination of susceptibility of bacterial strains with regard to cell growth inhibition. The assay method quantifies bacterial cell growth which corresponds to the turbidity of the liquid culture medium by photometric measurement carried out at 595 nm.
The method of MIC determination was performed according to DIN 58940-5. The volumina were adapted according to the microdilution method as described in DIN 58940-7 guideline.
Dependent on water solubility, compounds of the invention were dissolved either in water or ethanol in a concentration of 10 mg/ml. Subsequently, the stock was further diluted in water to a concentration of 512 μg/ml. The following serial dilutions (factor 2) were performed in water resulting in the following […] testing concentrations: 256 μg/ml, 128 μg/ml, 64 μg/ml, 32 μg/ml, 16 μg/ml, 8 μg/ml, 4 μg/ml, 2 μg/ml, 1 μg/ml, 0.5 μg/ml, 0.25 μg/ml and 0.125 μg/ml. Diluted compounds of the invention were transferred in 100 μl volume to the microtiter plate wells. […]
Before and after incubation, bacterial growth was determined by photometric analysis against a positive control containing growing bacteria without compound and a sterile/negative control containing only the medium.

Structures are written as SMILES. Values after ≈ are worked out from the molar mass of the structure shown. Bounds are passed on as bounds.

With `CCCCCCCCCCCCCCCCOP(=O)([O-])OCC[N+]1(C)CCCCC1` [Compound 2, Phosphoric acid hexadecyl ester 2-(1-methyl-piperidin-1-yl)-ethyl ester], the “MIC, fungus B” value in test [1] was 2 µg/mL (≈ 4.47 µM). Also, the “ED50 (μg/mL), protozoon D” value in test [2] amounted to 2.21 µg/mL (≈ 4.94 µM). Also, in test [3], the “MIC, fungus E” value amounted to 1 µg/mL (≈ 2.23 µM). The “MIC, fungus C” value in test [4] is 6 µg/mL (≈ 13.4 µM). The “ED50 (μg/mL), protozoon C” value in test [5] came out at 19.36 µg/mL (≈ 43.2 µM). In addition, the “MIC, fungus D” value in test [6] was 1 µg/mL (≈ 2.23 µM). The “MIC, fungus G” value in test [7] is 2 µg/mL (≈ 4.47 µM). In [8], the “MIC, fungus A” value was determined as 2 µg/mL (≈ 4.47 µM). In test [9], the “MIC, fungus H” value was determined as 1.5 µg/mL (≈ 3.35 µM). In addition, the “MIC, fungus F” value against Candida albicans TS3 was 1.5 µg/mL (≈ 3.35 µM).
For orientation: MIC means the smallest concentration in the dilution series that meets the test's criterion for growth inhibition. High values mean weaker potency, low ones greater potency. Regarding `CCCCCCCCCCCCCCCCOP(=O)([O-])OCC[N+](C)(C)C` [miltefosine, hexadecylphosphocholine, reference compound], the results for the MIC in [10] and in test [11] were over 256 µg/mL and 32 µg/mL (≈ 78.5 µM), respectively.

Source of the values: patent US20070167408A1, “NOVEL ALKYL PHOSPHOLIPID DERIVATIVES WITH REDUCED CYTOTOXICITY AND USES THEREOF” (ZENTARIS GmbH, priority 2005, published 2007).
